Where a SMILES comes first, the peptide text is derived from it. [ ]: non-standard residue; d: D form. The star is where a group is joined. ξ: configuration not given here. Cbz = O=C(OCc1ccccc1)*; ξAze = O=C(O)C1CCN1
What was measured:
[1] = test system: Calpain; experiment: Measurement of calpain inhibiting effect (casein hydrolysis, IC50 by Probit); type: biochemical, Japanese white rabbit; conditions: 30 °C for 30 minutes, pH = 7.5, IC50 by method of Probit
Description: Test Example 1 Measurement of Calpain Inhibiting Effect
Calpain was separated from a skeletal muscle of a Japanese white rabbit and partially purified according to the method of Tsuji and Imahori as described in J.Biochem. 90, 233-240 (1981), whereby the calpain for use in a test for investigating the calpain inhibiting effect (i.e., the inhibitory effect on calpain activity) of the aldehyde compounds according to the present invention was prepared.
The calpain inhibiting effect was measured in accordance with the method of Yoshimura et al. as described in J. Biol. Chem. 258, 8883-8889 (1983).
Each assay mixture was prepared by mixing 0.05 ml of a 4% casein solution, 0.05 ml of a 50 mM cysteine solution, 0.05 ml of a calpain solution, 0.025 ml of purified water, 0.025 ml of a 10% dimethyl sulfoxide solution containing each compound shown in Table 15 and 0.25 ml of a 200 mM imidazole hydrochloric acid buffer solution (pH = 7.5).
The thus prepared assay mixture was preincubated at 30 ° C for 3 minutes. The reaction was started by the addition of 0.05 ml of a 50 mM calcium chloride solution to the above mixture. After the incubation at 30 °C for 30 minutes, the reaction was terminated by the addition of 0.5 ml of 5% trichloroacetic acid.
The amount of a trichloroacetic-acid-soluble protein produced by hydrolysis of casein by calpain was measured by the spectrophotometric analysis in accordance with the method of Ross and Schatz as described in Anal. Biochem. 54, 304-306 (1973), and the absorbance (a) of each sample was measured.
The absorbance (b) of a blank sample which was treated similarly without any of the aldehyde compounds of the present invention, dissolved in a 10% dimethyl sulfoxide solution, was measured.
The inhibition of calpain activity was calculated in accordance with the formula [(b-a)/b] X 100, and the amount of each aldehyde compound necessary to inhibit calpain activity by 50% [IC50] was calculated according to the method of Probit.

[2] = test system: Platelet rich plasma (PRP); experiment: Measurement of platelet-aggregation inhibiting effect (collagen-induced aggregation in platelet rich plasma); type: cell-based, Japanese white rabbit; conditions: collagen-induced aggregation in rabbit PRP, preincubated at 37°C for 5 minutes, IC50 by method of Probit
Description: Test Example 2 Measurement of Platelet-aggregation Inhibiting Effect
Platelet rich plasma (PRP) was prepared and the platelet aggregation was measured in accordance with the method of Born and Cross as described in J. Phystol. 168, 178-195 (1963).
Blood of a Japanese white rabbit was drawn from a carotid artery of the rabbit. 9 parts by volume of the blood were mixed with 1 part by volume of a 3.8% aqueous solution of sodium citrate. The mixture was immediately centrifuged at 200 x g at 20 °C for 15 minutes, and PRP was obtained in the supernate. The number of platelets was calculated by use of an electronic cell counter (MEK-4150 manufactured by Nihon Kohden Kabushiki Kaisha). PRP with 55 X 10^4 or more platelets per 1 µl was employed in the tests.
10 µl of a test solution containing any of the aldehyde compounds of the present invention was added to 200 µl of PRP. The mixture was preincubated at 37°C for 5 minutes. To this mixture, 10 µl of collagen (22 µg/ml) was added to cause the aggregation. The aggregation was measured by Agricometer (NKK, PAT-4A).
In preparing the above test solution, each compound synthesized in the previously mentioned Examples as shown in Table 16 was dissolved in combined dimethyl sulfoxide and polyoxyethylene 60 hardened castor oil in ethanol. The mixture was diluted with an isotonic saline and the final concentration of the dimethyl sulfoxide and polyoxyethylene 60 hardened castor oil contained in the above mixture was adjusted to less than 1 %.
The inhibitory activity of each aldehyde compound on platelet aggregation was expressed by percentages compared with a blank test defined as 100% which was performed without any of the aldehyde compounds.
The amount of each aldehyde compound necessary to inhibit the platelet aggregation by 50% [IC50] was calculated according to the method of Probit.

[3] = Oryctolagus cuniculus, Platelet

Compound | IC50 [1] | IC50 [2, 3] | IC50 [2]
O=C[C@H](Cc1ccccc1)NC(=O)C1CCN(C(=O)/C=C/c2ccccc2)CC1 [Compound No. 1-27, 1-cinnamoylpiperidine-4-carboxylic acid-(1S)-(1-formyl-2-phenyl)ethylamide] | 750 nM | 2900 nM | –
O=C[C@H](Cc1ccccc1)NC(=O)C1CCN(C(=O)OCc2ccccc2)CC1 [1-7, 1-benzyloxycarbonylpiperidine-4-carboxylic acid-(1S)-(1-formyl-2-phenyl)ethylamide] | 3000 nM | – | –
L-N-benzyloxycarbonylleucine-(2S)-[1-formyl-3-(2-fluorophenyl)thio]propylamide [Compound No. 3-41] | 270 nM | – | 56000 nM
CC(C)C[C@H](OC(=O)Nc1ccccc1)C(=O)N[C@H](C=O)CCSCc1ccccc1F [Compound No. 2-17] | 3600 nM | – | –
O=C[C@H](Cc1ccccc1)NC(=O)C1CCN(C(=O)C(c2ccccc2)c2ccccc2)CC1 [1-38, 1-(diphenylacetyl)piperidine-4-carboxylic acid-(1S)-(1-formyl-2-phenyl)ethylamide] | 1900 nM | – | –
CSCC[C@@H](C=O)NC(=O)[C@H](CC(C)C)OC(=O)Nc1ccccc1 [Compound No. 2-3] | 1600 nM | – | –
CC(C)C[C@H](OC(=O)Nc1ccccc1)C(=O)N[C@H](C=O)Cc1ccccc1 [Compound No. 2-19] | 590 nM | 4200 nM | –
O=C[C@H](Cc1ccccc1F)NC(=O)C1CCN(C(=O)c2ccc3ccccc3c2)CC1 [Compound No. 1-55, 1-(2-naphthoyl)piperidine-4-carboxylic acid-(1S)-[1-formyl-2-(2-fluorophenyl)]ethylamide] | 630 nM | – | –
O=C[C@H](CCSCc1ccccc1Cl)NC(=O)C1CCN(C(=O)c2ccc3ccccc3c2)CC1 [1-51, 1-(2-naphthoyl)piperidine-4-carboxylic acid-(1S)-[1-formyl-3-(2-chlorobenzylthio)]propylamide] | 1400 nM | 10000 nM | –
CSCC[C@@H](C=O)NC(=O)[C@@H](OC(=O)Nc1ccccc1)C(C)C [Compound No. 2-21] | 2000 nM | – | –
O=C[C@H](Cc1ccccc1)NC(=O)C1CCN(C(=O)/C=C/c2ccc(Cl)cc2)CC1 [Compound No. 1-44, 1-(4-chlorocinnamoyl)piperidine-4-carboxylic acid-(1S)-(1-formyl-2-phenyl)ethylamide] | 990 nM | 47000 nM | –
L-N-benzyloxycarbonylleucine-(2S)-[1-formyl-3-(2-chlorophenyl)thio]propylamide [Compound No. 3-42] | 440 nM | – | 94000 nM
CSCC[C@@H](C=O)NC(=O)[C@H](CC(C)C)OC(=O)Nc1cccc2ccccc12 [2-14] | 1900 nM | – | –
CC(C)C[C@H](OC(=O)Nc1cccc2ccccc12)C(=O)N[C@H](C=O)CCSCc1ccccc1F [Compound No. 2-18] | 580 nM | – | –
CSCC[C@@H](C=O)NC(=O)[C@@H](OC(=O)Nc1cccc2ccccc12)C(C)C [Compound No. 2-22] | 3300 nM | – | –
O=C[C@H](Cc1ccccc1)NC(=O)C1CCN(C(=O)Nc2ccccc2)CC1 [1-41, 1-(N-phenylcarbamoyl)piperidine-4-carboxylic acid-(1S)-(1-formyl-2-phenyl)ethylamide] | 940 nM | – | –
CSCC[C@@H](C=O)NC(=O)C1CCN1C(=O)OCc1ccccc1 (stereo partly drawn) [Compound No. 1-1, (2R,2S)-1-benzyloxycarbonyl-azetidine-2-carboxylic acid-(1 S)-(1-formyl-3-methylthio)-propylamide] (Cbz-[ξAze]-Met-aldehyde) | 6600 nM | – | –

Compound | IC50 [1] | IC50 [2, 3] | IC50 [2]
O=C[C@H](Cc1ccccc1)NC(=O)C1CCN(C(=O)CCCc2ccccc2)CC1 [1-26, 1-(4-phenylbutyryl)piperidine-4-carboxylic acid-(1S)-(1-formyl-2-phenyl)ethylamide] | 890 nM | – | –
O=C[C@H](Cc1ccccc1)NC(=O)C1CCN(C(=O)c2ccc(Cl)c(Cl)c2)CC1 [1-36, 1-(3,4-dichlorobenzoyl)piperidine-4-carboxylic acid-(1S)-(1-formyl-2-phenyl)ethylamide] | 780 nM | – | –
L-N-benzyloxycarbonylleucine-(2S)-[1-formyl-3-(4-chlorophenyl)thio]propylamide [Compound No. 3-43] | 520 nM | – | 52000 nM
CC(C)C[C@H](OC(=O)Nc1cccc2ccccc12)C(=O)N[C@H](C=O)CCc1ccccc1 [2-13] | 1230 nM | – | –
O=C[C@H](Cc1ccccc1)NC(=O)C1CCN(S(=O)(=O)c2ccc3ccccc3c2)CC1 [1-34, 1-(2-naphthylsulfonyl)piperidine-4-carboxylic acid-(1S)-(1-formyl-2-phenyl)ethylamide] | 170 nM | – | –
O=C[C@H](Cc1ccc(OCc2ccccc2)cc1)NC(=O)C1CCN(C(=O)/C=C/c2ccccc2)CC1 [Compound No. 1-61, 1-cinnamoylpiperidine-4-carboxylic acid-(1S)-[1-formyl-2-(4-benzyloxyphenyl)]ethyl] | 880 nM | 9600 nM | –
O=C[C@H](Cc1ccccc1)NC(=O)C1CCN(C(=O)c2cccs2)CC1 [1-32, 1-(2-thienylcarbonyl)piperidine-4-carboxylic acid-(1S)-(1-formyl-2-phenyl)ethylamide] | 2000 nM | – | –
O=C[C@H](Cc1ccccc1)NC(=O)C1CCN(C(=O)/C=C/c2ccccc2Cl)CC1 [Compound No. 1-42, 1-(2-chlorocinnamoyl)piperidine-4-carboxylic acid-(1S)-(1-formyl-2-phenyl)ethylamide] | 350 nM | 23000 nM | –
O=C[C@H](Cc1ccccc1)NC(=O)C1CCN(C(=O)C2c3ccccc3-c3ccccc32)CC1 [1-39, 1-(9-fluorenylcarbonyl)piperidine-4-carboxylic acid-(1S)-(1-formyl-2-phenyl)ethylamide] | 2300 nM | – | –
O=C[C@H](Cc1ccccc1)NC(=O)C1CCN(C(=O)c2ccc3ccccc3c2)CC1 [1-28, 1-(2-naphthoyl)piperidine-4-carboxylic acid-(1S)-(1-formyl-2-phenyl)ethylamide] | 220 nM | – | –
CC(C)C[C@H](OC(=O)Nc1ccccc1)C(=O)N[C@H](C=O)CCSCc1ccc(Cl)cc1 [2-27] | – | 65000 nM | –
CC(C)C[C@H](OC(=O)Nc1cccc2ccccc12)C(=O)N[C@H](C=O)Cc1ccccc1 [Compound No. 2-20] | 4400 nM | – | –
O=C[C@H](Cc1ccccc1)NC(=O)C1CCN(C(=O)/C=C/c2cccc(Cl)c2)CC1 [Compound No. 1-43, 1-(3-chlorocinnamoyl)piperidine-4-carboxylic acid-(1S)-(1-formyl-2-phenyl)ethylamide] | 560 nM | – | –
Cc1ccc(S(=O)(=O)N2CCC(C(=O)N[C@H](C=O)Cc3ccccc3)CC2)cc1 [1-30, 1-(4-methylphenylsulfonyl)piperidine-4-carboxylic acid-(1S)-(1-formyl-2-phenyl)ethylamide] | 1100 nM | – | –
O=C[C@H](CCSCc1ccc(Cl)cc1)NC(=O)C1CCN(C(=O)/C=C/c2ccccc2Cl)CC1 [1-62, 1-(2-chlorocinnamoyl)piperidine-4-carboxylic acid-(1S)-[1-formyl-3-(4-chlorobenzylthio)]-propylamide] | 1600 nM | 17000 nM | –
O=C[C@H](Cc1c[nH]c2ccccc12)NC(=O)C1CCN(C(=O)/C=C/c2ccccc2Cl)CC1 [Compound No. 1-58, 1-(2-chlorocinnamoyl)piperidine-4-carboxylic acid-(1S)-[1-formyl-2-(3-indolyl)]ethylamide] | 680 nM | 22000 nM | –
